Experiments:
[1] = tested on: rat kidney; test: Rat nephrotoxicity model: serum markers of GFR (BUN, serum creatinine); type: in vivo, Sprague-Dawley rats; conditions: dose-response for BUN elevation
[2] = tested on: rat kidney; test: Rat nephrotoxicity model: kidney histopathology (H&E); type: in vivo, Sprague-Dawley rats; conditions: rats, 14 d once-daily
Method: This rat nephrotoxicity study design used 14 days of once-daily dosing of aminoglycosides in adult Sprague-Dawley rats. Rats were allowed full access to food and water, and aminoglycosides were dosed subcutaneously at 1 mL/kg dosing volume, formulated in water. Nephrotoxicity was assessed by monitoring changes in serum markers of glomerular filtration rate (GFR), namely blood urea nitrogen (BUN) and serum creatinine. Microscopic examination of kidney slices after fixation and hematoxylin and eosin (H&E) staining was also utilized, scoring for tubular dilation, cellular casts, interstitial inflammation, and regenerative changes to the tubules.

[3] = tested on: E. coli; test: MIC, further Brooklyn patient isolates: E. coli; type: cell-based; set-up: unit not given beside the values; conditions: E. coli (n = 3071)
Method: (§1) Minimum inhibitory concentrations (MIC) were determined by reference Clinical and Laboratory Standards Institute (CLSI) broth microdilution methods per M7-A7 [2006]. Briefly, serial two-fold dilutions of Compound 1 and comparator AGs (together, “the test compounds”) were prepared at 2× concentration in appropriate diluent. The dilutions were mixed in 96-well assay plates with bacterial inoculum. Bacteria were suspended in sterile saline and added to each assay plate to obtain a final concentration of 5.5×10^5 CFU/mL. The plates were incubated at 35° C. for 20 hours in ambient air. […] After incubation, assay plates were read using a microtiter plate reader at 600 nm.
(§2) Further studies analyzed a greater number of unique patient isolates obtained from Brooklyn, N.Y. hospitals (including those species described above). These species included Acinetobacter, E. coli, Enterobacter, Klebsiella, and Pseudomonas.

[4] = tested on: Enterobacter; test: MIC, further Brooklyn patient isolates: Enterobacter; type: cell-based; set-up: unit not given beside the values; conditions: Enterobacter (n = 206)
Method: as §1, §2

MIC50 [3]	MIC50 [4]	Structure (SMILES)	apparent relative nephrotoxicity (ranking) [1]	Histopathology score (0 to 5 Scale): Casts ([2]; 3 mg/kg)	Histopathology score (0 to 5 Scale): Dilation ([2]; 3 mg/kg)	Histopathology score (0 to 5 Scale): Inflammation ([2]; 3 mg/kg)	Histopathology score (0 to 5 Scale): Regeneration ([2]; 3 mg/kg)	Histopathology score (0 to 5 Scale): Casts ([2]; 10 mg/kg)	Histopathology score (0 to 5 Scale): Dilation ([2]; 10 mg/kg)	Histopathology score (0 to 5 Scale): Inflammation ([2]; 10 mg/kg)	Histopathology score (0 to 5 Scale): Regeneration ([2]; 10 mg/kg)	Histopathology score (0 to 5 Scale): Casts ([2]; 30 mg/kg)	Histopathology score (0 to 5 Scale): Dilation ([2]; 30 mg/kg)	Histopathology score (0 to 5 Scale): Inflammation ([2]; 30 mg/kg)	Histopathology score (0 to 5 Scale): Regeneration ([2]; 30 mg/kg)	Histopathology score (0 to 5 Scale): Casts ([2]; 100 mg/kg)	Histopathology score (0 to 5 Scale): Dilation ([2]; 100 mg/kg)	Histopathology score (0 to 5 Scale): Inflammation ([2]; 100 mg/kg)	Histopathology score (0 to 5 Scale): Regeneration ([2]; 100 mg/kg)
–	–	CN[C@@H]1[C@@H](O[C@H]2O[C@H](CO)[C@@H](N)[C@H](O)[C@H]2O)OC2C[C@@H](N)[C@@H](O[C@H]3[C@H](O)[C@@H](O)[C@H](N)C[C@@H]3N)OC2[C@@H]1O (some centres unmarked) [Apramycin, apramycin]	Neomycin≈Gentamicin>Tobramycin>Apramycin≈Paromomycin>Amikacin	0 +/− 0	0 +/− 0	0.4 +/− 0.5	0 +/− 0	0 +/− 0	0 +/− 0	0.4 +/− 0.5	0.6 +/− 1.3	0 +/− 0	0 +/− 0	0.6 +/− 0.5	0.6 +/− 0.5	1.4 +/− 0.5	0.6 +/− 0.5	2.4 +/− 0.5	2.4 +/− 0.5
≦0.25	–	CC(C)(O/N=C(\C(=O)N[C@@H]1C(=O)N2C(C(=O)[O-])=C(C[n+]3ccccc3)CS[C@H]12)c1csc(N)n1)C(=O)O [CAZ, ceftazidime]	–	–	–	–	–	–	–	–	–	–	–	–	–	–	–	–	–
≦0.25	≦0.25	CO/N=C(\C(=O)N[C@@H]1C(=O)N2C(C(=O)O)=C(CSc3nc(=O)c(O)nn3C)CS[C@H]12)c1csc(N)n1 [CRO]	–	–	–	–	–	–	–	–	–	–	–	–	–	–	–	–	–
